Results on one molecule are retold here after ChEMBL document CHEMBL1208672, “Novel 8-arylated purines as inhibitors of glycogen synthase kinase” (Eur J Med Chem, 2010).

SMILES strings stand for the structures.

For assay [1], the target named is Glycogen synthase kinase-3 alpha (Homo sapiens) (UniProt P49840). In words: Inhibition of human GSK3alpha assessed as residual activity at 1 uM relative to control.
In assay [2] the target is T1, Cyclin-dependent kinase 5/CDK5 activator 1 (Homo sapiens) (UniProt Q00535+Q15078). In words: Inhibition of CDK5/p25 assessed as residual activity at 1 uM relative to control. It is filed as protein-complex assay.
Assay [3] addresses T1, Cyclin-dependent kinase 5/CDK5 activator 1 (Homo sapiens). In words: Inhibition of CDK5/p25 assessed as residual activity at 10 uM relative to control. The class given is protein-complex assay.
For assay [4], the target named is Casein kinase I isoform alpha (Homo sapiens) (UniProt P48729). The assay is described as follows: Inhibition of CK1alpha1 assessed as residual activity at 10 uM relative to control.
The target in assay [5] is Casein kinase II subunit alpha (Homo sapiens) (UniProt P68400). In words: Inhibition of CK2alpha assessed as residual activity at 10 uM relative to control.
Assay [6] concerns the target Epidermal growth factor receptor (Homo sapiens) (UniProt P00533). In words: Inhibition of EGFR assessed as residual activity at 10 uM relative to control.
In assay [7] the target is Glycogen synthase kinase-3 beta (Homo sapiens, UniProt P49841). In words: Inhibition of human GSK3-beta assessed as residual activity at 10 uM relative to control.
The target in assay [8] is Insulin-like growth factor 1 receptor (Homo sapiens) (UniProt P08069). In words: Inhibition of IGF1R assessed as residual activity at 10 uM relative to control.
Assay [9] concerns the target Mitogen-activated protein kinase 8 (Homo sapiens) (UniProt P45983). In words: Inhibition of JNK1 assessed as residual activity at 10 uM relative to control.
Assay [10] concerns the target MAP kinase-activated protein kinase 2 (Homo sapiens) (UniProt P49137). In words: Inhibition of MAPKAPK2 assessed as residual activity at 10 uM relative to control.
The target of assay [11] is T2, Tyrosine-protein kinase receptor TYRO3 (Homo sapiens) (UniProt Q06418).
T2 sequence (whole entry): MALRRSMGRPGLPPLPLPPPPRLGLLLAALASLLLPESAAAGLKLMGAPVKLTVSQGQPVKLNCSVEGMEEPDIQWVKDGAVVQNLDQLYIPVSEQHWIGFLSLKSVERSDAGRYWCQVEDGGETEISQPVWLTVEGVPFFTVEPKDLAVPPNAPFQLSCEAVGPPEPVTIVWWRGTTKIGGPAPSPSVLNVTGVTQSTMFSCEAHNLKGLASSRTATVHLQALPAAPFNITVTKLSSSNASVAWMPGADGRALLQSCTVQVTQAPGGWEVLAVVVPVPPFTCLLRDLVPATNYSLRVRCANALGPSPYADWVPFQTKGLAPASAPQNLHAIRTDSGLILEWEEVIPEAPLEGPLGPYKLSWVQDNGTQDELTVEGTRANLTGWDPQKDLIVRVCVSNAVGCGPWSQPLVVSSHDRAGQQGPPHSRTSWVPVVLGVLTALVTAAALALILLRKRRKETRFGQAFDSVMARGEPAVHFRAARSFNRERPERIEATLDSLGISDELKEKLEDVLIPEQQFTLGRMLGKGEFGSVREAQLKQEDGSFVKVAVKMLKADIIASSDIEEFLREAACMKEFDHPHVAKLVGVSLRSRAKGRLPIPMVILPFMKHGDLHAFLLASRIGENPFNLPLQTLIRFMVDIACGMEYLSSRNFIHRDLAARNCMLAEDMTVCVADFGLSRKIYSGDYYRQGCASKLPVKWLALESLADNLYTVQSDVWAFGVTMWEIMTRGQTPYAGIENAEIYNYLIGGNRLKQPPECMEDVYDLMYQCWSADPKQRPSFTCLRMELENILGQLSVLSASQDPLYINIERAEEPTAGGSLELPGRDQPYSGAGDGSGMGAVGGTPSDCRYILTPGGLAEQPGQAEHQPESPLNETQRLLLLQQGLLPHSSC
In words: Inhibition of TYRO3/SKY assessed as residual activity at 10 uM relative to control.

Assay [12] addresses Mitogen-activated protein kinase 3 (Homo sapiens) (UniProt P27361). The assay is described as follows: Inhibition of ERK1 at 10 uM relative to control. On the set-up: scale not given: the % may be the effect or the level left.

T1 sequence (Q00535 whole entry): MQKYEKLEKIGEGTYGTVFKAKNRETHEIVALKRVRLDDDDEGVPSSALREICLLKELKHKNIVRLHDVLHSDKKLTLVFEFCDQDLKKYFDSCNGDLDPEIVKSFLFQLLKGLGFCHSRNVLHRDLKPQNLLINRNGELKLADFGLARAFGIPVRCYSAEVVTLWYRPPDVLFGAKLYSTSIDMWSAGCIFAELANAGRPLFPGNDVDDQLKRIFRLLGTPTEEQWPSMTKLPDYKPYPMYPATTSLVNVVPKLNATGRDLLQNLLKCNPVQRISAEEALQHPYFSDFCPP
T1 sequence (Q15078 99-307 partner limits assumed): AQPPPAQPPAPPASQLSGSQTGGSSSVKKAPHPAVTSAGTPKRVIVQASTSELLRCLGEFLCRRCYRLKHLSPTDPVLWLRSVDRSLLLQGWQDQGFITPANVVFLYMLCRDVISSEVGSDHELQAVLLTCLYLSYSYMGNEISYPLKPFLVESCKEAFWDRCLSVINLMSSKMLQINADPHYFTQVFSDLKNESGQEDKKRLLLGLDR
Chain of Mitogen-activated protein kinase 8 (Homo sapiens) (P45983 whole entry): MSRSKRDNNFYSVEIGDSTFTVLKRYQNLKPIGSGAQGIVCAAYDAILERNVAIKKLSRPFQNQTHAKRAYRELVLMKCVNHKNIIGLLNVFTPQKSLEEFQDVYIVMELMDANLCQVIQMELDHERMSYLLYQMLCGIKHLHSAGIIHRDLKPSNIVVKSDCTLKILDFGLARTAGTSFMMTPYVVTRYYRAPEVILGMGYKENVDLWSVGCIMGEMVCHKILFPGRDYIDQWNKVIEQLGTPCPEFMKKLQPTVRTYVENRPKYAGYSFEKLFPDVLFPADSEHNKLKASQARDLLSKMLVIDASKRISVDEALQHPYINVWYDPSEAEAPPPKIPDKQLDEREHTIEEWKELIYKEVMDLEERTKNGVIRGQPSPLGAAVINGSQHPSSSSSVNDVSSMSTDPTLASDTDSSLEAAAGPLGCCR
Chain of Insulin-like growth factor 1 receptor (Homo sapiens) (P08069 31-736 limits assumed): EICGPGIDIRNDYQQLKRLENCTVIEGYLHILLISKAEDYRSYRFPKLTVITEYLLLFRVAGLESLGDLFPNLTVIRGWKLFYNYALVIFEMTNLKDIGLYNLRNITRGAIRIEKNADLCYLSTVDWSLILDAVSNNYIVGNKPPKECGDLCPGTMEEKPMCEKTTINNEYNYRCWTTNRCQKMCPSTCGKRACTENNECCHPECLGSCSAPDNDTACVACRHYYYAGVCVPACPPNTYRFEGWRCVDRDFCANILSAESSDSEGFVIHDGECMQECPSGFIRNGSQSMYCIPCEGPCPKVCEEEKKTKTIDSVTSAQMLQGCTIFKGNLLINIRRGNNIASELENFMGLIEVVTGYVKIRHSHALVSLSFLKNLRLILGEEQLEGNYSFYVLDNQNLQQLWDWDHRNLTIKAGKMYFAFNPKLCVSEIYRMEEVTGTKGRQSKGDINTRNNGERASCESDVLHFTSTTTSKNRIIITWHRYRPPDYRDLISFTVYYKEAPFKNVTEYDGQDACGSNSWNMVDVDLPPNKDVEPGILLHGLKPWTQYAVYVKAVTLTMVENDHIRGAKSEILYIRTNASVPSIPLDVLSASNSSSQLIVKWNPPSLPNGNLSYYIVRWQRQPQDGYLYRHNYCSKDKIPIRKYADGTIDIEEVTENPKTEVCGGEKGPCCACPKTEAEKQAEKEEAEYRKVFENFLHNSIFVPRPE
Chain of Insulin-like growth factor 1 receptor (Homo sapiens) (P08069 741-1367 limits assumed): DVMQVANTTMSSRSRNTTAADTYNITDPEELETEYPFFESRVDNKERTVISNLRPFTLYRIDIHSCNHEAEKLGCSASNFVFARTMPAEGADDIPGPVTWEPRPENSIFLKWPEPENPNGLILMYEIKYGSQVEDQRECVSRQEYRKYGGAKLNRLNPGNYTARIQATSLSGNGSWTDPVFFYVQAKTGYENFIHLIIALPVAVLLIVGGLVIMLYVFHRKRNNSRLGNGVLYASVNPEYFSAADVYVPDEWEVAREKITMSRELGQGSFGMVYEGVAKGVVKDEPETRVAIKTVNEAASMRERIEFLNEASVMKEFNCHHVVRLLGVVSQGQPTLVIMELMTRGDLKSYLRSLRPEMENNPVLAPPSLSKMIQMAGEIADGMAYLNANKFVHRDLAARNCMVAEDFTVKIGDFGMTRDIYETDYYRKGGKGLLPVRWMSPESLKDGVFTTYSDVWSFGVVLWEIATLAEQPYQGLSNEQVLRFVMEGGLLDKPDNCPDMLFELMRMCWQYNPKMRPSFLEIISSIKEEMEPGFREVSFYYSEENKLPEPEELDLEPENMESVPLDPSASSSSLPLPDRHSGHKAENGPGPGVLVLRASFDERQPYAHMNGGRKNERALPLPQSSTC
Chain of Mitogen-activated protein kinase 3 (Homo sapiens) (P27361 whole entry): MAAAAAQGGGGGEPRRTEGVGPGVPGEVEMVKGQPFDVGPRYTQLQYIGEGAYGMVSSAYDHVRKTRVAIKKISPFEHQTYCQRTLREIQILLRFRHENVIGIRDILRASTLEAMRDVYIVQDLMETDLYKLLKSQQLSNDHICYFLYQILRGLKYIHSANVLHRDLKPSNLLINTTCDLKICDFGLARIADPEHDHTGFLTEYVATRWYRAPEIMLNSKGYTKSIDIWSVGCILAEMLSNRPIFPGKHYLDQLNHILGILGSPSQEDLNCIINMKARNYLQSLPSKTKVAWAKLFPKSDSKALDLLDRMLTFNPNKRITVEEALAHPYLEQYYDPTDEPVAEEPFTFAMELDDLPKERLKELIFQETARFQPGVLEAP
Chain of Glycogen synthase kinase-3 beta (P49841 whole entry, looked up): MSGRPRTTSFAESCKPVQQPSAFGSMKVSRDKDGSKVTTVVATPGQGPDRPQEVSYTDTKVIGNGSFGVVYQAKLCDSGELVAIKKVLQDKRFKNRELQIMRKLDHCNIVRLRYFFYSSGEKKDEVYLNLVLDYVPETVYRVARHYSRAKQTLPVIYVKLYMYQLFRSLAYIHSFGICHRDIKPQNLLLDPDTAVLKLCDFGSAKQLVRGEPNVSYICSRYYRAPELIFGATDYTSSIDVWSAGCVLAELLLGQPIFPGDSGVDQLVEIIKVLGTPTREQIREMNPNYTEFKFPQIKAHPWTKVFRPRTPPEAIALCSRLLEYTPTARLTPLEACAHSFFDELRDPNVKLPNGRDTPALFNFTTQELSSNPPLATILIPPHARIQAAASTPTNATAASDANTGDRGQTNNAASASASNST
Chain of Casein kinase I isoform alpha (Homo sapiens) (P48729 2-337 limits assumed): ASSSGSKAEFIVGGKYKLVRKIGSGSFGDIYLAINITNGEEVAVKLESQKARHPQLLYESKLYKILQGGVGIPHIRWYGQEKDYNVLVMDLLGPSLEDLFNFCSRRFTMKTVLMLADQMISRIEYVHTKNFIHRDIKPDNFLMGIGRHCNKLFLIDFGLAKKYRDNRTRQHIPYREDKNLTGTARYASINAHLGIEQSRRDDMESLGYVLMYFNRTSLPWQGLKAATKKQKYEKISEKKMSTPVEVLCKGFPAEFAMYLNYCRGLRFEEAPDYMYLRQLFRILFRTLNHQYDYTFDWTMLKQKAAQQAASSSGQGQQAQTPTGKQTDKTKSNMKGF
Chain of Glycogen synthase kinase-3 alpha (Homo sapiens) (P49840 2-483 limits assumed): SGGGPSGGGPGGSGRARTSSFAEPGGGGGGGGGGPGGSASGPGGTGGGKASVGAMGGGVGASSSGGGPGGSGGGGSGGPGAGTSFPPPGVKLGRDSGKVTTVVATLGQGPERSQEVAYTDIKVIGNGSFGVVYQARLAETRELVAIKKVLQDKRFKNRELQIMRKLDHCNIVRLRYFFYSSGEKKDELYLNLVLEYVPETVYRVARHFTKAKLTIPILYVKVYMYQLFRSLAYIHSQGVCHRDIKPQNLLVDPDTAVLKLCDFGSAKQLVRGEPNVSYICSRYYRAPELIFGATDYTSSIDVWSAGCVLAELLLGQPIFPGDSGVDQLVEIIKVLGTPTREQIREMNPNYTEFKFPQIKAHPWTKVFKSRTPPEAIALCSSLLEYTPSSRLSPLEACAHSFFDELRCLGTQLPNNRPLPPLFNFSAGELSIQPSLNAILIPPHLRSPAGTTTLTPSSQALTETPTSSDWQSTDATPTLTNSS
Chain of Casein kinase II subunit alpha (Homo sapiens) (P68400 whole entry, looked up): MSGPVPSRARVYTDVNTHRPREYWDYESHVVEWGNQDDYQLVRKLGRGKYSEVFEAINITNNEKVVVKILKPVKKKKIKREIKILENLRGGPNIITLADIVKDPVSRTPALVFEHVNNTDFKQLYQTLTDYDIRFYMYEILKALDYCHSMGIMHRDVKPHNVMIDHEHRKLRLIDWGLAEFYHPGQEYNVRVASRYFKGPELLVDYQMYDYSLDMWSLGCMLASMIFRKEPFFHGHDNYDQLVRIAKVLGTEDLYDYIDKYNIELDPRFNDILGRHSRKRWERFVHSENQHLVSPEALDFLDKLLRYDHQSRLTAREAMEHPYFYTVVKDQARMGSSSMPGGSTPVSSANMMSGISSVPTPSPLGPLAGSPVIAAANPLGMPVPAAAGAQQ
Chain of MAP kinase-activated protein kinase 2 (Homo sapiens) (P49137 whole entry, looked up): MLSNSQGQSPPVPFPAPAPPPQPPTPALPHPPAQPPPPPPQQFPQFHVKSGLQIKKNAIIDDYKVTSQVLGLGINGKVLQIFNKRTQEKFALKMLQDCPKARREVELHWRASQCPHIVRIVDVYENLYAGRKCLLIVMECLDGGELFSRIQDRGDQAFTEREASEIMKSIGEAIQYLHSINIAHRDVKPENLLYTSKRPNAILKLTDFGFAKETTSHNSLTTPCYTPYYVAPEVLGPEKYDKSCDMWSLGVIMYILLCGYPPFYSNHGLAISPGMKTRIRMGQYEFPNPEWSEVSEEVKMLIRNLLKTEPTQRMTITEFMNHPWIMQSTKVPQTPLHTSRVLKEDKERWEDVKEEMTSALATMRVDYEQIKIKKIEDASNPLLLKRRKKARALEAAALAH

As to `c1ccc(Nc2ncnc3[nH]c(-c4ccccc4)nc23)cc1`, the Activity is 5% in assay [1]; 63% in assay [2]; 59.8% in [3]; 100% in assay [4]; 77% in [5]; 32.7% in assay [6]. Moreover, the Activity in assay [7] was 18.6%; in assay [8], 96.2%; in [9], 93.3%; in assay [10] it was 78.2%; in assay [11], 96.7%; in [12], 110%.
